Results as given in ChEMBL document CHEMBL4431358, “Flavonoids and biphenylneolignans with anti-inflammatory activity from the stems of Millettia griffithii” (Bioorg Med Chem Lett, 2016).
Calls of active or inactive are those of the source. No cut-off for these calls is given here.

What was measured:
[1] = test system: RAW264.7; test: Cytotoxicity against mouse RAW264.7 cells assessed as reduction in cell viability at 100 uM after 72 hrs by MTT assay; assay type: cell-based; settings: raw264.7, 72 h
[2] = test system: RAW264.7; test: Inhibition iNOS mRNA expression levels in LPS-induced mouse RAW264.7 cells at 1 to 4 uM by RT-PCR analysis; assay type: functional, cell-based
[3] = test system: RAW264.7; test: Inhibition COX2 mRNA expression levels in LPS-induced mouse RAW264.7 cells at 1 to 4 uM by RT-PCR analysis; assay type: functional, cell-based
[4] = test system: RAW264.7; test: Antiinflammatory activity in mouse RAW264.7 cells assessed as inhibition of LPS-induced nitric oxide production preincubated for 1 hr followed by LPS stimulation for 24 hrs by Griess method; assay type: functional, cell-based
[5] = test system: RAW264.7; test: Inhibition iNOS protein expression levels in LPS-induced mouse RAW264.7 cells at 1 to 4 uM by Western blot analysis; assay type: functional, cell-based
[6] = test system: RAW264.7; test: Antiinflammatory activity in mouse RAW264.7 cells assessed as inhibition of LPS-induced nitric oxide production at 50 uM preincubated for 1 hr followed by LPS stimulation for 24 hrs by Griess method; assay type: functional
[7] = test system: RAW264.7; test: Inhibition COX2 protein expression levels in LPS-induced mouse RAW264.7 cells at 1 to 4 uM by Western blot analysis; assay type: functional, cell-based
[8] = test system: RAW264.7; test: Inhibition iNOS protein expression levels in LPS-induced mouse RAW264.7 cells at 4 uM by Western blot analysis; assay type: functional, cell-based
[9] = test system: RAW264.7; test: Inhibition iNOS mRNA expression levels in LPS-induced mouse RAW264.7 cells at 4 uM by RT-PCR analysis; assay type: functional, cell-based

Row | SMILES | Activity [1] | inhibition [2] | inhibition [3] | IC50 [4] | inhibition [5] | inhibition at 50 µM [6] | inhibition [7] | inhibition [8] | inhibition [9]
1 | COC1=CC(=O)C(CC=C(C)C)(CC=C(C)C)C(=O)/C1=C(N)\C=C\c1ccccc1 | Non-Toxic | Active | inactive | 2.1 µM | Active | > 50% | inactive |  | 
2 | COC1=CC(=O)C(CC=C(C)C)(CC=C(C)C)C2=C1C(=O)C[C@@H](c1ccccc1)O2 | Non-Toxic |  |  | 20.4 µM |  | > 50% |  |  | 
3 | COc1cc(OC)c2c(=O)c(-c3cc(OC)c(OCC=C(C)C)cc3OC)coc2c1 | Non-Toxic |  |  | 35.7 µM |  | > 50% |  |  | 
4 | CC(=N)NCc1cccc(CN)c1 |  |  |  |  |  |  |  | Active | Active
